# Measured values as given in patent publication US20230295131A1, “INHIBITORS OF RHO-ASSOCIATED COILED-COIL KINASE” (Angion Biomedica Corp., priority 2020, published 2023).
# Read-outs that look alike come from different tables or passages of the source.
# Tests used:
# [1] = Pharmacokinetic profile, compound levels in the vena cava; type: in vivo, C57BL/6 Mouse; settings: po 10 mg/kg in 0.5% CMC suspension
# Experimental: For assessing compound levels in the vena cava, 10-11 week old male C57BL/6 animals were dosed orally with 10 mg/kg of Ex. 65 (mesylate salt) in 0.5% carboxymethyl cellulose (CMC) in water. Serum samples were collected from the portal vein at 15, 30, 60 120, 240, 360 and 480 minutes after dosing. Samples were analyzed for compound concentration by LC-MS.
# ROCK1 = molecular target: T1, ROCK1 (Homo sapiens, UniProt Q13464); test: ROCK1 kinase binding affinity, DiscoverX KINOMEscan KdELECT; settings: 11-point 3-fold dilution
# T1 construct: T7 phage fusion (kinase-tagged phage) or DNA tag for qPCR detection
# T1 sequence (Q13464 whole entry, the tested form may be a part): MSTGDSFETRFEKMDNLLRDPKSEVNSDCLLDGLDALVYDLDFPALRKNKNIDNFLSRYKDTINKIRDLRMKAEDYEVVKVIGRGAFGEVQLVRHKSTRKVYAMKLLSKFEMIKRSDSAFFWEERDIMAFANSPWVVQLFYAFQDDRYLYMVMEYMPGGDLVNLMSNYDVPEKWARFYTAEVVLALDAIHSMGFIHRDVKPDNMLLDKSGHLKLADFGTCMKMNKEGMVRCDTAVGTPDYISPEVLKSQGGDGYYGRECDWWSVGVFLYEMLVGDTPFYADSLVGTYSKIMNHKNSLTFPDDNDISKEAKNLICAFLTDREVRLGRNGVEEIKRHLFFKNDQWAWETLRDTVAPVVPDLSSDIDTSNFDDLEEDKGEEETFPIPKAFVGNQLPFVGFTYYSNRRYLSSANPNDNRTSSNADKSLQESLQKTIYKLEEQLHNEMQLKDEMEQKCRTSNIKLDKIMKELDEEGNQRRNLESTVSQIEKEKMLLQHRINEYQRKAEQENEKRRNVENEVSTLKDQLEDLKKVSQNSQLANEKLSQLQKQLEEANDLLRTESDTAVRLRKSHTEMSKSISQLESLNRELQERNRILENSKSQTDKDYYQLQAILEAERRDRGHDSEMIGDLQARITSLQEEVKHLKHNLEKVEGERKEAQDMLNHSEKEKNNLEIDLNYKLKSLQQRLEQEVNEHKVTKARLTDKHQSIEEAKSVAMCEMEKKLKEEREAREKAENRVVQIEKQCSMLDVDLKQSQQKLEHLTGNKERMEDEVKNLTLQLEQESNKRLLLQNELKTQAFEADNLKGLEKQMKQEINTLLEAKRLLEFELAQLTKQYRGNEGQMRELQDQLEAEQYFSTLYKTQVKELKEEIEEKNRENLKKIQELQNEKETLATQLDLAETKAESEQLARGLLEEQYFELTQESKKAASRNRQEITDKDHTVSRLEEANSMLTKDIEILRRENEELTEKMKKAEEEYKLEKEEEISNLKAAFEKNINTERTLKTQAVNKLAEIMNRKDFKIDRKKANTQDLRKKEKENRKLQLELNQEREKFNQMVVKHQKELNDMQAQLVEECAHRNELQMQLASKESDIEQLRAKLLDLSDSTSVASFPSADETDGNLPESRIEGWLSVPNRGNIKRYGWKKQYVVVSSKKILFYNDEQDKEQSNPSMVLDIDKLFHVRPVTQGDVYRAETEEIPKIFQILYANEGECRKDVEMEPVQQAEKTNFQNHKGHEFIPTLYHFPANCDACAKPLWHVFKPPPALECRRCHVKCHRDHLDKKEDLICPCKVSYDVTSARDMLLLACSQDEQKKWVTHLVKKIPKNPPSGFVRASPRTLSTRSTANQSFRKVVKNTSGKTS
# Procedure, shortened: (§1)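 Competition binding of DNA- or phage-tagged kinase to immobilised ligand beads, with bound kinase quantified by qPCR of eluates.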
# [2] = Pharmacokinetic profile, compound levels in the portal vein; type: in vivo, C57BL/6 Mouse
# Experimental: For assessing compound levels in the portal vein, 7-8 week old male C57BL/6 animals were dosed orally with 10 mg/kg compound of Ex. 65 (mesylate salt) in 0.5% carboxymethyl cellulose (CMC) in water. Serum samples were collected from the portal vein at 15, 30, 60 120 and 240 minutes after dosing. Samples were analyzed for compound by LC-MS.
# [3] = tested on: miRNAs in hepatic homogenates; test: miRNA quantification in liver homogenates of the NASH model; type: in vivo, mice
# Experimental: (§2) 2. Pharmacodynamic and Efficacy Profile in Hepatic Diseases: • The activity of Ex. 65 was evaluated in a model of fast-food diet (FFD)+CCl4+sugar-induced NASH. Adult male mice were randomized to vehicle of 30 mg/kg test compound, IP, twice-daily for two weeks. Treatment with Ex. 65 reduced hepatic lipid accumulation (FIG. 3) and NAFLD activity score (NAS; FIG. 4).
# MicroRNAs (miRNAs) from liver homogenates from the study described above were quantified. Compared to healthy livers, 65 differentially expressed miRNAs from NASH livers were identified, of which 22 were corrected by treatment with Ex. 65 (see Table 6).
# [4] = tested on: CTGF in mouse embryonic fibroblasts (MEFs); test: TGFβ1-induced CTGF production assay; type: cell-based; settings: 1 hour pretreatment before TGFβ1, real time PCR
# Experimental: Mouse embryonic fibroblasts (MEFs) were isolated, starved overnight, then pretreated with Ex. 65 or Ex. 93 for 1 hour prior to addition of TGFβ1. RNA was isolated from cells and real time PCR was performed for CTGF.
# [5] = tested on: fast-food diet (FFD)+CCl4+sugar-induced NASH; test: Fast-food diet (FFD)+CCl4+sugar-induced NASH model; type: in vivo, mice; settings: 30 mg/kg, IP, twice-daily for two weeks; for hepatic lipid accumulation (liver steatosis): FIG. 3; for NAFLD activity score (NAS): FIG. 4
# Experimental: as §2
# ROCK2 = molecular target: T2, ROCK2 (Homo sapiens, UniProt O75116); test: ROCK2 kinase binding affinity, DiscoverX KINOMEscan KdELECT; settings: for Kd: KINOMEscan KdELECT, 11-point 3-fold dilution, read-out: Kd (μM) ROCK2; for ROCK2 Selectivity: selectivity for ROCK2 over ROCK1 from Kd
# T2 construct: T7 phage fusion (kinase-tagged phage) or DNA tag for qPCR detection
# T2 sequence (O75116 whole entry, the tested form may be a part): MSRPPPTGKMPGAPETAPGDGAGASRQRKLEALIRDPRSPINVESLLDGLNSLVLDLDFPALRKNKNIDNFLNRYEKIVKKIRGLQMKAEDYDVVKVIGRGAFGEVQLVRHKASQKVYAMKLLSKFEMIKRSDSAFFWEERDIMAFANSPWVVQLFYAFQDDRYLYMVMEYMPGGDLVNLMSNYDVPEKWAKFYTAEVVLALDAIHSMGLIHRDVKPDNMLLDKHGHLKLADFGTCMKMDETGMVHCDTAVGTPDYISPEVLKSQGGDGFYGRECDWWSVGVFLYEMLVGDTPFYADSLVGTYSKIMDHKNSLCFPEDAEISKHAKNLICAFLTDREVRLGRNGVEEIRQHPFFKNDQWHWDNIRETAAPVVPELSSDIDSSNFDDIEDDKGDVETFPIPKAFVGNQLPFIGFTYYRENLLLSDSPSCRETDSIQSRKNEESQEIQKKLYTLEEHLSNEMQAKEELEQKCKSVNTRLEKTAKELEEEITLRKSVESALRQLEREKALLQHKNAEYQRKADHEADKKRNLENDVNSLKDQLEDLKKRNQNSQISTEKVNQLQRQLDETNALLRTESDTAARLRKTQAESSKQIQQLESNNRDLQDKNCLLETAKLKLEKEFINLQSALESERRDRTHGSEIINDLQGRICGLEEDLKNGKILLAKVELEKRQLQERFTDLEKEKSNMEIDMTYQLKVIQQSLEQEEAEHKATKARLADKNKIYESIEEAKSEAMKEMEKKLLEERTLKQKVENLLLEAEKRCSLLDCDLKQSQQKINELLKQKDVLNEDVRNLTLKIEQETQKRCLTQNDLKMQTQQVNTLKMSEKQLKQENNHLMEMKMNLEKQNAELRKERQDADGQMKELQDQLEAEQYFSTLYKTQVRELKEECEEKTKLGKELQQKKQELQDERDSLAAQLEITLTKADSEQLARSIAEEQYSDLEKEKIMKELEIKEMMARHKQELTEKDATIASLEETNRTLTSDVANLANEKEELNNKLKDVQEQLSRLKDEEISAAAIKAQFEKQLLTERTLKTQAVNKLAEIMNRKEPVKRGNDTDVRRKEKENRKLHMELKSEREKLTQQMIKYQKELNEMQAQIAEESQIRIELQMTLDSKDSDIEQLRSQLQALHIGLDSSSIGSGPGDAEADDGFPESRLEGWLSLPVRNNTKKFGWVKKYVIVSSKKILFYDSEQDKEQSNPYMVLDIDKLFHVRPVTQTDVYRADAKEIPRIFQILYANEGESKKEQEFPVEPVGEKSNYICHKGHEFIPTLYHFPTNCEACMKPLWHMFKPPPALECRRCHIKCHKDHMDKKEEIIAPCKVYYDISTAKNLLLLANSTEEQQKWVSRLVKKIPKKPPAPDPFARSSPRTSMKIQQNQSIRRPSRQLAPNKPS
# Procedure, shortened: as §1
# Hepatic stellate cells = test: Gel contraction assay (TGFβ1-induced); type: cell-based; settings: test compound at 100 μM, 1 hour pretreatment, TGFβ1 24 hours
# Experimental: Hepatic stellate cells were plated onto collagen coated plates and pretreated with test compound (at 100 μM) for 1 hour. TGFβ1 is then added for 24 hours, and images are taken.
# HCC = HCC patients at advanced stage; cited from earlier work
# [6] = tested on: chronic hepatitis C infection; settings: cited from earlier work
# fibroblasts = fibroblasts treated with KD025; cited from earlier work
# [7] = tested on: murine autoimmune disease; settings: KD025 administration; cited from earlier work
# [8] = 12-16 weeks of dosing in healthy volunteers and patients; cited from earlier work
# [9] = male, C57BL/6, mouse, vena cava serum, mesylate salt, serum
# [10] = male, C57BL/6, mouse, portal vein serum, po 10 mg/kg in 0.5% CMC suspension, mesylate salt, serum
# [11] = 30 mg/kg IP twice-daily two weeks
compound,measurement,setting,value
"O[C@H]1CC[C@@H](Nc2nccc(-c3nccc(C#Cc4ccc5[nH]ncc5c4)n3)n2)CC1 [Ex. 65, (1s,4s)-4-((4-((1H-Indazol-5-yl)ethynyl)-[2,4′-bipyrimidin]-2′-yl)amino)cyclohexanol]",AUC,[1]; [9],145 ng·h/mL
same,Cmax,[1]; [9],258 nM
same,"Cmax as multiple of Kd, in vena cava",[1],318*Kd
same,F % in vena cava,[1]; mesylate salt,4.6%
same,Kd,ROCK1,0.1 to 0.99 µM
same,AUC,[2]; [10],697 ng·h/mL
same,Cmax,[2]; [10],1540 nM
same,oral bioavailability and liver entry,"[2]; mice, po, portal vein versus vena cava",preferential liver entry
same,"Cmax as multiple of Kd, in portal vein",[2]; po 10 mg/kg in 0.5% CMC suspension,1904*Kd
same,F % in portal vein,"[2]; po 10 mg/kg in 0.5% CMC suspension, mesylate salt",22%
same,hepatic levels of oncomiR-181a,[3]; [11],reduced
same,hepatic levels of oncomiR-425,[3]; [11],reduced
same,Mean (disease + Ex. 65) mmu-miR-5123,"[3]; hepatic homogenates, mean control 3.22, disease 1.53",3.54
same,Mean (disease + Ex. 65) mmu-miR-871-3p,"[3]; hepatic homogenates, mean control 4.08, disease 1.53",7.98
same,Mean (disease + Ex. 65) mmu-miR-7115-5p,"[3]; hepatic homogenates, mean control 4.31, disease 8.54",2.41
same,Mean (disease + Ex. 65) mmu-let-7k,"[3]; hepatic homogenates, mean control 9.04, disease 13.85",7.72
same,Mean (disease + Ex. 65) mmu-miR-93-3p,"[3]; hepatic homogenates, mean control 39.45, disease 76.50",46.52
same,Mean (disease + Ex. 65) mmu-miR-542-5p,"[3]; hepatic homogenates, mean control 66.04, disease 74.42",39.03
same,Mean (disease + Ex. 65) mmu-miR-27a-5p,"[3]; hepatic homogenates, mean control 71.79, disease 98.65",53.13
same,Mean (disease + Ex. 65) mmu-miR-106a-5p,"[3]; hepatic homogenates, mean control 115.29, disease 149.51",114.11
same,Mean (disease + Ex. 65) mmu-miR-125a-3p,"[3]; hepatic homogenates, mean control 245.12, disease 297.02",182.06
same,Mean (disease + Ex. 65) mmu-miR-501-3p,"[3]; hepatic homogenates, mean control 364.92, disease 489.94",296.78
same,Mean (disease + Ex. 65) mmu-miR-339-3p,"[3]; hepatic homogenates, mean control 427.46, disease 502.07",426.25
same,Mean (disease + Ex. 65) mmu-miR-802-5p,"[3]; hepatic homogenates, mean control 1094.11, disease 614.54",899.47
same,Mean (disease + Ex. 65) mmu-miR-322-3p,"[3]; hepatic homogenates, mean control 1115.59, disease 1416.47",949.59
same,Mean (disease + Ex. 65) mmu-miR-17-3p,"[3]; hepatic homogenates, mean control 1200.81, disease 1454.34",1161.55
same,Mean (disease + Ex. 65) mmu-miR-351-5p,"[3]; hepatic homogenates, mean control 1248.83, disease 1603.84",889.81
same,Mean (disease + Ex. 65) mmu-miR-99b-5p,"[3]; hepatic homogenates, mean control 1421.33, disease 1933.41",1099.61
same,Mean (disease + Ex. 65) mmu-miR-425-5p,"[3]; hepatic homogenates, mean control 1716.15, disease 2037.69",1524.04
same,Mean (disease + Ex. 65) mmu-miR-181a-5p,"[3]; hepatic homogenates, mean control 3789.12, disease 5124.26",2941.29
same,Mean (disease + Ex. 65) mmu-miR-320-3p,"[3]; hepatic homogenates, mean control 4080.44, disease 5204.90",3896.99
same,Mean (disease + Ex. 65) mmu-miR-93-5p,"[3]; hepatic homogenates, mean control 36188.01, disease 41626.66",31184.61
same,Mean (disease + Ex. 65) mmu-miR-143-3p,"[3]; hepatic homogenates, mean control 67983.70, disease 80209.00",58204.03
same,Mean (disease + Ex. 65) mmu-miR-191-5p,"[3]; hepatic homogenates, mean control 118228.91, disease 141957.68",119365.71
same,number of differentially expressed miRNAs of NASH livers corrected by treatment,"[3]; of 65 differentially expressed miRNAs, 30 mg/kg IP twice-daily two weeks",22
same,CTGF production in embryonic fibroblasts,[4],attenuated
same,hepatic lipid accumulation (liver steatosis),[5],reduced
same,hepatic lipid accumulation (liver steatosis),[5]; listed as compound 65,reduction
same,NAFLD activity score (NAS),[5],reduced
same,NAFLD activity score (NAS),[5]; listed as compound 65,reduction
same,Kd,ROCK2,< 0.01 µM
same,ROCK2 Selectivity,ROCK2,**** (>500-fold selectivity for ROCK2)
same,TGFβ1-induced gel contraction in hepatic stellate cells,Hepatic stellate cells,significantly attenuated
"O[C@H]1CC[C@@H](Nc2nccc(-c3nccc(C#Cc4ccc5[nH]nc(F)c5c4)n3)n2)CC1 [Ex. 93, (1s,4s)-4-((4-((3-Fluoro-1H-Indazol-5-yl)ethynyl)-[2,4′-bipyrimidin]-2′-yl)amino)cyclohexanol]",Kd,ROCK1,1 to 9.9 µM
same,Kd,ROCK2,< 0.01 µM
same,ROCK2 Selectivity,ROCK2,**** (>500-fold selectivity for ROCK2)
same,TGFβ1-induced gel contraction in hepatic stellate cells,Hepatic stellate cells,significantly attenuated
CNC(=O)c1cc(Oc2ccc(NC(=O)Nc3ccc(Cl)c(C(F)(F)F)c3)cc2)ccn1 [sorafenib],extension of median survival,HCC,less than 3 months
interferon,response to antiviral therapy,[6]; in combination with ribavirin,~50%
same,response to antiviral therapy,[6]; used alone,~20%
"Fc1ccc(CCNc2nccc(-c3nccc(C#Cc4ccc5[nH]ncc5c4)n3)n2)nc1 [Ex. 39, 4-((1H-Indazol-5-yl)ethynyl)-N-(2-(5-fluoropyridin-2-yl)ethyl)-[2,4′-bipyrimidin]-2′-amine]",Kd,ROCK1,1 to 9.9 µM
same,Kd,ROCK2,0.01 to 0.099 µM
same,ROCK2 Selectivity,ROCK2,** (50 to 150-fold selectivity for ROCK2)
"Fc1ccc(CNc2nccc(-c3nccc(C#Cc4ccc5[nH]ncc5c4)n3)n2)nc1 [Ex. 3, 4-((1H-Indazol-5-yl)ethynyl)-N-((5-fluoropyridin-2-yl)methyl)-[2,4′-bipyrimidin]-2′-amine]",Kd,ROCK1,1 to 9.9 µM
same,Kd,ROCK2,< 0.01 µM
same,ROCK2 Selectivity,ROCK2,*** (151 to 500-fold selectivity for ROCK2)
CC(C)NC(=O)COc1cccc(-c2nc(Nc3ccc4[nH]ncc4c3)c3ccccc3n2)c1 [KD025],expression of profibrotic mRNA including CTGF,fibroblasts,decreased
same,"expression of pro-inflammatory, fibrosis-linked cytokines",[7],decreased
same,murine autoimmune disease,[7],mitigated
same,hemodynamic or other side effects,[8],no hemodynamic or other side effects
"CC(C)(N)CNc1nccc(-c2nccc(C#Cc3ccc4[nH]ncc4c3)n2)n1 [Ex. 89, N1-(4-((1H-Indazol-5-yl)ethynyl)-[2,4′-bipyrimidin]-2′-yl)-2-methylpropane-1,2-diamine]",Kd,ROCK1,1 to 9.9 µM
same,Kd,ROCK2,0.1 to 0.99 µM
same,ROCK2 Selectivity,ROCK2,* (<50-fold selectivity for ROCK2)
"CC1(C)CCC(CNc2nccc(-c3nccc(C#Cc4ccc5[nH]ncc5c4)n3)n2)O1 (stereo not drawn) [Ex. 68, 4-((1H-Indazol-5-yl)ethynyl)-N-((5,5-dimethyltetrahydrofuran-2-yl)methyl)-[2,4′-bipyrimidin]-2′-amine]",Kd,ROCK1,0.1 to 0.99 µM
same,Kd,ROCK2,< 0.01 µM
same,ROCK2 Selectivity,ROCK2,*** (151 to 500-fold selectivity for ROCK2)
